Consider 1 compound from US6387950B2, “Treatment of tumors with RARα selective retinoid compounds in combination with other anti-tumor agents” (Allergan Sales, Inc., priority 2000, dated 2002).

For this assay, the target named is T1, RARα receptors (Homo sapiens, UniProt P10276).
T1 sequence (P10276 183-417 limits assumed): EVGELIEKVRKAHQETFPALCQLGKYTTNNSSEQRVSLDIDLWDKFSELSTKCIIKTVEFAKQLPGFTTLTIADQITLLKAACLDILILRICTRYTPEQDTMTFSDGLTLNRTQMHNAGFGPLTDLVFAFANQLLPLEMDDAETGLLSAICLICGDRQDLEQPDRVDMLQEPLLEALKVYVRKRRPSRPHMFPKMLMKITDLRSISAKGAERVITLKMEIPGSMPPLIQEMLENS
As to the kind of experiment: chimeric receptor transactivation assay, RARα. The assay is classed as cell-based. The source says: For example, a chimeric receptor transactivation assay which tests for agonist-like activity in the RARα, RARβ, RARγ, RXRα receptor subtypes, and which is based on work published by Feigner P. L. and Holm M. (1989) Focus, 112 is described in detail in U.S. Pat. No. 5,455,265. The specification of U.S. Pat. No. 5,455,265 is hereby expressly incorporated by reference.
The results obtained in this assay are expressed in EC50 numbers, as they are also in the chimeric receptor transactivation assay.

As to `CC1(C)CCC(C)(C)c2c1cc(C(=O)Nc1cc(F)c(C(=O)O)c(F)c1)c(O)c2Cl` [Compound 2, 2,6-Difluoro-4-[(3-hydroxy-4-chloro-5,5,8 8-tetramethyl-5,6,7,8-tetrahydronaphthalene-2-carbonyl) -amino]-benzoic acid], the EC50 – broadly, the concentration that produces a half-maximal response – was found to be 0.18 µM and the efficiency amounted to 75%.
